In BindingDB's records for doi:10.1042/BJ20021535 (University of Dundee, 2003):

What was measured:
[1] = biological target: Casein kinase I isoform delta (Rattus norvegicus, UniProt Q06486)
[2] = biological target: Cyclin-dependent kinase 2 (Homo sapiens, UniProt P24941)
[3] = biological target: Dual specificity tyrosine-phosphorylation-regulated kinase 1A (Rattus norvegicus, UniProt Q63470)
[4] = biological target: Tyrosine-protein kinase Lck (Homo sapiens, UniProt P06239)
[5] = biological target: T1, Serine/threonine-protein kinase Sgk1 (Homo sapiens, UniProt O00141)
T1 sequence (O00141 whole entry): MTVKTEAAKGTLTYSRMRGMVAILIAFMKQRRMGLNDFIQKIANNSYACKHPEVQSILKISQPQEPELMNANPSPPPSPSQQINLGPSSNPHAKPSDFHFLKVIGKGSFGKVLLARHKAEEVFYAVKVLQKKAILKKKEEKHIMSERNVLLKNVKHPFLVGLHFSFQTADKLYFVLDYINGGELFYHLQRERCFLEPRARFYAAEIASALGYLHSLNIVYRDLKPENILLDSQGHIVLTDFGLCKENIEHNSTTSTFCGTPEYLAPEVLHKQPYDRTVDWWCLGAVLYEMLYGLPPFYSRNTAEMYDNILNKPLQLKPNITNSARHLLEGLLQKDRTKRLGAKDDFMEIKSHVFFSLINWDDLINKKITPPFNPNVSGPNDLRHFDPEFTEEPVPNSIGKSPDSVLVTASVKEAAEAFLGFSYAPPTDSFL

Ninein = Ninein (Homo sapiens, UniProt Q8N4C6)
Sequence of Ninein (Q8N4C6 whole entry): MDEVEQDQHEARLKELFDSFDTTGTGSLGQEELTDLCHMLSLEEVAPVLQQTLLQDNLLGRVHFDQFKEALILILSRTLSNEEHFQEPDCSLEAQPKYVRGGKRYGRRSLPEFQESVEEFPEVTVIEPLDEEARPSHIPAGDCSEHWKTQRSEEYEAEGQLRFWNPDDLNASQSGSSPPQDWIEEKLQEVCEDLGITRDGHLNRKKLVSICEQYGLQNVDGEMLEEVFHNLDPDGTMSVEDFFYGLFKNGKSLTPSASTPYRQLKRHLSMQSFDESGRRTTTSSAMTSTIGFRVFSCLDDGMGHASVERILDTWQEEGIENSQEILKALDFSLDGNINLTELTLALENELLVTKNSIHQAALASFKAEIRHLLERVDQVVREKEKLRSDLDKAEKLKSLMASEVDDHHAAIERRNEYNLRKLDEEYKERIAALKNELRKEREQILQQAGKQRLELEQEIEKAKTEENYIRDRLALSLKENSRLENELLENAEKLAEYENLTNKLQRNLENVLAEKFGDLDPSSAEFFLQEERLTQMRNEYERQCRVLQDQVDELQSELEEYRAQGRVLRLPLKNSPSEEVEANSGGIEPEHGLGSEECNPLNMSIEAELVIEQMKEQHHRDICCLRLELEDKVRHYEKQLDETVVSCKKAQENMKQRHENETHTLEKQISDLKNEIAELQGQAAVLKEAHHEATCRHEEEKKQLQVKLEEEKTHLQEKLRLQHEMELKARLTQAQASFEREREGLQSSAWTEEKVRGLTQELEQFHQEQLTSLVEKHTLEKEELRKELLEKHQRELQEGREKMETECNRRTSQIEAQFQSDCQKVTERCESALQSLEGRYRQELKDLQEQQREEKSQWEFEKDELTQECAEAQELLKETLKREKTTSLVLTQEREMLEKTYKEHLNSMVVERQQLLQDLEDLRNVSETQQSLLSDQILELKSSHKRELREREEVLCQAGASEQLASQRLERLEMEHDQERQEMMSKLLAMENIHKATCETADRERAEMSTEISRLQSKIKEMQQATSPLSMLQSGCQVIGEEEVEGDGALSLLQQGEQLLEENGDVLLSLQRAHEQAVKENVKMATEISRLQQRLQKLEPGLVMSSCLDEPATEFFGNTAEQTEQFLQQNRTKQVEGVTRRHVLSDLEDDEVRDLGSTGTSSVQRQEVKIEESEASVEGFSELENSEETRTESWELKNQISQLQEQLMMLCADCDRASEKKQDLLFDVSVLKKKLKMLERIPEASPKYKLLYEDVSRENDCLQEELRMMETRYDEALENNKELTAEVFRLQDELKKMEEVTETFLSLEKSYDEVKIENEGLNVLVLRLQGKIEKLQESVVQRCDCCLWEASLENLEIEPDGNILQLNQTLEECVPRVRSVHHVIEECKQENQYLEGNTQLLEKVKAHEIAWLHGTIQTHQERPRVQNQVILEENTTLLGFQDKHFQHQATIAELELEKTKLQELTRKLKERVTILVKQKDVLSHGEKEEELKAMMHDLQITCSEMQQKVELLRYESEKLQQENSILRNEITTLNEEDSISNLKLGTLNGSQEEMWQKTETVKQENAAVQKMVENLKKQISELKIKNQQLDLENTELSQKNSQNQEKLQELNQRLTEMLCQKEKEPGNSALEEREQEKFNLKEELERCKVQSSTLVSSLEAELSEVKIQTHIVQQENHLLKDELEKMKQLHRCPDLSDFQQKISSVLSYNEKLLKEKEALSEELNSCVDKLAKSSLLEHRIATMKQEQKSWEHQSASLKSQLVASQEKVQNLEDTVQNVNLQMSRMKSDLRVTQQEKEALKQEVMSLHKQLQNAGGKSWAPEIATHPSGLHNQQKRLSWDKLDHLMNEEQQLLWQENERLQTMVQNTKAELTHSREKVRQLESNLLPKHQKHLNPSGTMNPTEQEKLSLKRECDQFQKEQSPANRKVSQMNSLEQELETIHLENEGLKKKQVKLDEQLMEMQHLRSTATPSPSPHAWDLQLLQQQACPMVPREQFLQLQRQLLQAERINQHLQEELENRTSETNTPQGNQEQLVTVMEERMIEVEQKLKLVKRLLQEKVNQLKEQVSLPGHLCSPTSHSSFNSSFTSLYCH

Sequence of Casein kinase I isoform delta (Q06486 whole entry, canonical isoform): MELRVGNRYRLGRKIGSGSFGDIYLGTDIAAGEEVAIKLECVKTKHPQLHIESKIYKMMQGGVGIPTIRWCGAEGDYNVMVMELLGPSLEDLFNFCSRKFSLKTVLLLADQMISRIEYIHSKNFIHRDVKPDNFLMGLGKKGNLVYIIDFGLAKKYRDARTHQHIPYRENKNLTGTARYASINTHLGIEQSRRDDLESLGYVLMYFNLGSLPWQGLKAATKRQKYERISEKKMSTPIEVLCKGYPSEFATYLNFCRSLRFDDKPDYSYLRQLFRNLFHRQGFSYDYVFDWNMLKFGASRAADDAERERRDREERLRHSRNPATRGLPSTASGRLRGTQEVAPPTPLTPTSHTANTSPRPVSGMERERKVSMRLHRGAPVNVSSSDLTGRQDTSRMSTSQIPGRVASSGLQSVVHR
Sequence of Tyrosine-protein kinase Lck (P06239 whole entry): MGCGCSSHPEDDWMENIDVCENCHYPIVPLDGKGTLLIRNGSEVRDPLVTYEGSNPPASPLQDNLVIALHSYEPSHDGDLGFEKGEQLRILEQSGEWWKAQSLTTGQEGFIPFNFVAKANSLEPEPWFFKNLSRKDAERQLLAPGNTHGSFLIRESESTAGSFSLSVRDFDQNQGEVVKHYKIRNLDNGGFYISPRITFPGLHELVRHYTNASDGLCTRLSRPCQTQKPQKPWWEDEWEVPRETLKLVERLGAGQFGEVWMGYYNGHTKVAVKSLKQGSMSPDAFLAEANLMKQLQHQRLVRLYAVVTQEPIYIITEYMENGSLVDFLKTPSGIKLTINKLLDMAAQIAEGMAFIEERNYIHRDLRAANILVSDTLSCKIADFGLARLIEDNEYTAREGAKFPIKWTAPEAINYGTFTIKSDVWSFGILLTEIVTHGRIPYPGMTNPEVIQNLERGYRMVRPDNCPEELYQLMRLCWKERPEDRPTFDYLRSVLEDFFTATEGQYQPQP

Row | SMILES | Ki [1] [nM] | Ki [2] [nM] | Ki (Ninein) [nM] | also measured
1 | Nc1ncnc2c1cnn2-c1ccccc1 [1-Phenyl-1H-pyrazolo[3,4-d]pyrimidin-4-ylamine] | 9900 | – | – | –
2 | CC[C@H](CO)Nc1nc(NCc2ccccc2)c2ncn(C(C)C)c2n1 [2,6,9-Trisubstituted purine deriv. 28] | > 10000 | – | – | –
3 | CC(C)[C@H](CO)Nc1nc(Nc2cccc(Cl)c2)c2ncn(C(C)C)c2n1 [(2R)-2-({6-[(3-chlorophenyl)amino]-9-(propan-2-yl)-9H-purin-2-yl}amino)-3-methylbutan-1-ol] | – | 100 | – | Ki [3]: 300 nM
4 | O=Nc1c(C2C(=O)Nc3ccccc32)[nH]c2ccccc12 (centres undefined) [Indirubin-3 -monoxime] | – | 590 | 190 | Ki [4]: 300 nM; Ki [5]: 380 nM
5 | O=C1Cc2c([nH]c3ccc([N+](=O)[O-])cc23)-c2ccccc2N1 [NSC 705701] | – | – | 110 | –
